The source of these data is PubChem BioAssay (NCI).

Assay in all cases: NCI-60 cell line screen, 48 h
For assay [1], the system named is HCT-15 colon.
The subject of assay [2] is RPMI-8226 leukemia.
Assay [3] has as its system HOP-92 NSCLC.
Assay [4] relates to 786-0 renal.
The test system of assay [5] is SR leukemia.
Assay [6] deals with OVCAR-5 ovarian.
Assay [7] concerns ACHN renal.
The test system of assay [8] is RXF 393 renal.
The subject of assay [9] is PC-3 prostate.
Assay [10] deals with HT29 colon.

Values joined by “and” are separate entries in the source; they are usually repeats but may differ in a detail not shown here. Identical values can stand only once.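 Each compound was tested at five concentrations against cells in 96-well plates for 48 hours. GI50 marks 50% less growth. TGI is the concentration that stops growth completely.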

In the case of `COC(=O)C1=C(C)NC(C)=C(C(=O)OC)C1c1ccccc1[N+](=O)[O-]`, the GI50 is 65.8 µM in [1]; 47.6 µM in assay [2]; 23.3 µM in assay [3]; > 100 µM in assay [4]; 34.7 µM in assay [5]; > 100 µM in assay [6]. The GI50 is 76.9 µM in assay [7], 36 µM in assay [8], 50.3 µM in [9] and > 100 µM in assay [10]. The TGI in [1], in [2], in assay [3], in [4], in assay [5] and in [6] was > 100 µM in each case. Also, the TGI in [7], in [8], in [9] and in assay [10] was > 100 µM throughout.
Turning to `CCCCOc1nc2ccccc2cc1C1CNC(=O)c2ccccc2N1` (centres undefined), the GI50 is 2.3 µM in assay [1]; 2.81 µM in assay [2]; 4.57 µM in assay [3]; 3.14 µM in [4]; 1.13 µM in assay [5]; 5.4 µM in assay [6]. Besides, the GI50 was 4.31 µM in [7], 2.25 µM in [8], 2.95 µM in assay [9] and 3.3 µM in assay [10]. For the same molecule, the TGI in assay [1] stood at 11.3 µM; in assay [2], 16 µM; in assay [3] it was 26.6 µM; in [4] it was 11.1 µM; in assay [5] it was 12.5 µM; in assay [6], 31.4 µM. Besides, the TGI in assay [7] came out at 17.8 µM; in [8] it was 10.2 µM; in assay [9], 13.9 µM; in assay [10], 10.6 µM.
Consider `CCOC(=O)Nc1ccc2nc(Sc3ccc(Cl)cc3)sc2c1`, for which the GI50 in [1] was 0.632 µM; in assay [2], 3.51 µM; in assay [3] it was 7.98 µM; in assay [4], 8.12 µM; in assay [5] it was 0.358 µM; in assay [6] it was 21.6 µM. Moreover, the GI50 in [7] is 11.5 µM; in assay [8], 2.99 µM; in assay [9], 4.27 µM; in assay [10] it was 0.518 µM. Also, the TGI was > 87.3 µM in assay [1]; 54.8 µM in assay [2]; 65.4 µM in assay [3]; 40.3 µM in [4]; > 32.9 µM in [5]; > 100 µM in [6]. In addition, the TGI was > 90.4 µM in assay [7], 18.8 µM in [8], > 100 µM in [9] and 13.3 µM in [10].
`Fc1ccc(-c2ncn(C3CCNCC3)c2-c2ccnc(Oc3ccc(Oc4ccccc4)cc3)n2)cc1`: the GI50 in [1] was 3.55 µM; in assay [2], 4.99 µM; in [3], 0.651 µM; in [4] it was 4.03 µM; in assay [5], 2.1 µM; in assay [6], 4.1 µM. Also, the GI50 is 3.77 µM in assay [7], 2.78 µM in assay [8], 3.49 µM in assay [9] and 2.13 µM in [10]. The TGI in [1] turned out to be 7.29 µM; in [2] it was 9.91 µM; in [3] it was 4.15 µM; in assay [4], 7.75 µM; in [5] it was 6.42 µM; in assay [6], 7.67 µM. Besides, the TGI in assay [7] amounted to 7.19 µM; in assay [8] it was 6.1 µM; in assay [9] it was 6.87 µM; in assay [10] it was 5.23 µM.
For the molecule `O=C(O)c1ccccc1/C=C1/Nc2ccccc2C1=O`, the TGI in [1], in assay [2], in [3], in [4], in [5] and in assay [6] was > 100 µM throughout. Also, the TGI in [7], in assay [8], in [9] and in assay [10] was > 100 µM each time.
With `C/C(=C\COc1ccc2ccc(=O)oc2c1)CCC(=O)C(C)(C)O`, the TGI is 51.1 µM in [1]; 50 µM in [2]; 64.5 µM in assay [3]; 43.3 µM in assay [4]; 47.4 µM in [5]; > 100 µM in [6]. For the same molecule, the TGI in [7] was > 100 µM; in [8], 39.9 µM; in assay [9] it was > 100 µM; in assay [10], 52.7 µM.
As to `COc1ccc2c(c1)/C(=N/OC(C)=O)c1c-2c(Nc2ccc(/C(C)=N/OC(C)=O)cc2)nc2ccccc12`, the GI50 in assay [1] was 57.5 µM; in [2] it was 29.2 µM; in assay [3], 70.1 µM; in assay [4] it was > 100 µM; in assay [5], 87.6 µM; in [6], > 100 µM. Further, the GI50 in assay [7] is 56.6 µM; in assay [8], > 100 µM; in assay [9] it was 18.8 µM; in assay [10], > 100 µM. In addition, the TGI in [1] is > 100 µM; in assay [2] it was 79.7 µM; in assay [3], > 100 µM; in assay [4], > 100 µM; in assay [5], > 100 µM; in assay [6], > 100 µM. Besides, the TGI is > 100 µM in [7], > 100 µM in [8], 38.4 µM in [9] and > 100 µM in assay [10].
Consider `BrCC[N+]12CCCN1CCC2`, for which the TGI in [1] worked out at 28.2 µM; in [2], 8.38 µM; in [3] it was 13.7 µM; in assay [4], 22.3 µM; in assay [5], 6.8 µM; in [6], 40 µM. Moreover, the TGI turned out to be 14.3 µM in assay [7], 29.2 µM in assay [8], 31.2 µM in assay [9] and 38.2 µM in [10].
Regarding `O=C1c2ccccc2-c2c1c1ccccc1c(=O)n2CCCNCCO`, the GI50 was 0.554 µM in assay [1]; 0.241 µM in assay [2]; 0.357 µM in [3]; 0.234 µM in assay [4]; 0.086 µM in [5]; 1.05 µM in [6]. In addition, the GI50 in assay [7] was 0.195 µM; in assay [8], 0.585 µM; in [9], 0.752 µM; in assay [10], 0.33 µM. The TGI in assay [1] came out at 6.13 µM; in assay [2], 1.76 µM; in assay [3] it was 2.61 µM; in assay [4] it was 10.9 µM; in [5] it was 0.618 µM; in assay [6], 7.27 µM. Moreover, the TGI in assay [7] was determined as 0.906 µM; in [8] it was 4.03 µM; in assay [9] it was 4.47 µM; in assay [10], 6.68 µM.
As to `CN1CCN(Cc2ccc(NC(=O)c3cncc(C#Cc4cncc5[nH]ncc45)c3)cc2C(F)(F)F)CC1`, the GI50 is 1.69 µM in assay [1]; 0.761 µM in assay [2]; 0.156 µM in assay [3]; 1.8 µM in [4]; 1.04 µM in assay [5]; 0.601 µM in assay [6]. In addition, the GI50 in assay [7] is 1.14 µM; in assay [8], 0.665 µM; in [9], 1.14 µM; in [10], 0.251 µM. The TGI in assay [1] was found to be 6.14 µM; in assay [2] it was 2.48 µM; in [3], 1.26 µM; in assay [4], 6.35 µM; in assay [5] it was 10.7 µM; in assay [6], 5.96 µM. The TGI in assay [7] was found to be 4.71 µM; in assay [8] it was 1.95 µM; in assay [9], 5.68 µM; in assay [10], 6.24 µM.
On to `C=C(C)[C@@H]1CC[C@@H]2C(=CC[C@]3(C)C([C@H](C)CC/C=C(/C)C(=O)O)CC[C@@]23C)[C@@]1(C)CCC(=O)O` (some centres undefined), for which the TGI was 44.4 µM in [1]; 58.2 µM in assay [2]; 43 µM in [3]; 43.9 µM in assay [4]; 49.4 µM in [5]; > 100 µM in [6]. The TGI in assay [7] stood at 36.7 µM; in assay [8], 35.1 µM; in assay [9], 65.9 µM; in [10], 48.4 µM.
For `O=[N+]([O-])C1(CO)COC2(OC1)c1ccccc1-c1ccccc12`, the TGI is > 100 µM in [1]; 70.1 µM in assay [2]; > 95.7 µM in assay [3]; > 74.8 µM in assay [4]; 82.1 µM in assay [5]; > 100 µM in [6]. Moreover, the TGI in assay [7] is > 100 µM; in [8], > 69.1 µM; in assay [9] it was > 100 µM; in assay [10] it was > 100 µM.
Take `NS(=O)(=O)c1ccc(N=Nc2cc3ccccc3c(C(=O)O)c2O)cc1`: the TGI is > 100 µM in assay [1]; > 100 µM in [2]; > 100 µM in assay [3]; > 100 µM in assay [4]; > 84.6 µM in assay [5]; > 94.5 µM in assay [6]. Further, the TGI was 52.5 µM in [7], > 70.1 µM in [8], > 90.3 µM in assay [9] and > 100 µM in [10].
As for `CCN(Cc1cccc(C)c1)c1ccc(CO)c(Cl)c1`, the GI50 in [1] is 12.1 µM; in assay [2], 6.2 µM; in [3] it was 2.16 µM; in assay [4], 10.8 µM; in assay [5], 21.6 µM; in [6], 0.245 µM. Besides, the GI50 in assay [7] was 14.6 µM; in [8] it was 6.52 µM; in [9], 12.6 µM; in assay [10], 4.12 µM. Besides, the TGI is 33.1 µM in [1]; 31.2 µM in assay [2]; 13.5 µM in assay [3]; 23.5 µM in [4]; > 62 µM in assay [5]; 1.04 µM in assay [6]. Moreover, the TGI in assay [7] turned out to be 29.1 µM; in assay [8], 21.9 µM; in assay [9], 26.1 µM; in assay [10] it was 16.2 µM.
For `Cn1ccnc1C(=O)/C=C/c1ccc(CC(=O)Nc2cc(F)c(F)c(F)c2)cc1`, the GI50 is 1.03 µM in assay [1]; 0.795 µM in [2]; 2.59 µM in assay [3]; 2.44 µM in assay [4]; 0.861 µM in assay [5]; 3.63 µM in assay [6]. Also, the GI50 was 4.53 µM in assay [7], 0.941 µM in assay [8], 1.26 µM in [9] and 0.861 µM in assay [10]. The TGI in [1] worked out at 6.58 µM; in [2] it was 3.54 µM; in assay [3], 7.44 µM; in assay [4], 5.5 µM; in assay [5], 8.91 µM; in [6] it was 9.39 µM. Moreover, the TGI is 19.2 µM in assay [7], 4.11 µM in [8], 5.65 µM in assay [9] and 12.7 µM in assay [10].
In the case of `CCCCCCCC(=O)O[C@H]1[C@H]2[C@@H](CC1(C)C)C(=O)[C@]13O[C@H]1C(=O)[C@]1(CO1)[C@]23C`, the TGI in assay [1] is 8.26 µM and 7.9 µM; in [2] it was 18.3 µM and 3.34 µM; in [3], 6.03 µM and 4.81 µM; in assay [4] it was 14.1 µM; in [5], > 38.7 µM; in [6], 28.8 µM and 25.9 µM. For the same molecule, the TGI in [7] was 4.09 µM; in [8] it was 3.97 µM and 5.31 µM; in [9], 30.8 µM; in assay [10], 14.4 µM and 14.9 µM. The GI50 is 2.95 µM in assay [2], 2.83 µM in assay [3], 15.3 µM in assay [6] and 1.93 µM in [8].
For `CCN(CC)c1ccc(/C=C2/NC(=O)NC2=O)cc1`, the GI50 in assay [1] is 3.21 µM; in [2], 5.34 µM; in assay [3] it was 9.01 µM; in assay [4], 10.9 µM; in assay [5] it was 0.605 µM; in [6], 10.5 µM. Besides, the GI50 in assay [7] is 26.5 µM; in [8], 4.34 µM; in assay [9] it was 12.1 µM; in assay [10] it was 2.83 µM. Also, the TGI was > 100 µM in assay [1]; > 100 µM in assay [2]; > 93.1 µM in assay [3]; > 100 µM in [4]; > 100 µM in [5]; > 100 µM in assay [6]. Further, the TGI in assay [7] was > 100 µM; in assay [8], 17.5 µM; in [9], > 100 µM; in [10], > 100 µM.
